From ChEMBL document CHEMBL1125979, “Phosphinic acid inhibitors of 3-hydroxy-3-methylglutaryl-coenzyme a reductase” (Bioorg Med Chem Lett, 1991) come the findings set out here.

Assay [1] concerns HepG2. The assay can be described thus: The compound was tested for inhibition of cholesterol biosynthesis in human hepatoma G2 cell line. It counts as functional, cell-based.
Assay [2] concerns HepG2. The assay can be described thus: The compound was tested for inhibition of cholesterol biosynthesis in human hepatoma G2 cell line; showed relatively low potency. It counts as functional, cell-based.
The target in assay [3] is T1, 3-hydroxy-3-methylglutaryl-coenzyme A reductase (Homo sapiens, UniProt P04035).
T1 sequence (P04035 whole entry): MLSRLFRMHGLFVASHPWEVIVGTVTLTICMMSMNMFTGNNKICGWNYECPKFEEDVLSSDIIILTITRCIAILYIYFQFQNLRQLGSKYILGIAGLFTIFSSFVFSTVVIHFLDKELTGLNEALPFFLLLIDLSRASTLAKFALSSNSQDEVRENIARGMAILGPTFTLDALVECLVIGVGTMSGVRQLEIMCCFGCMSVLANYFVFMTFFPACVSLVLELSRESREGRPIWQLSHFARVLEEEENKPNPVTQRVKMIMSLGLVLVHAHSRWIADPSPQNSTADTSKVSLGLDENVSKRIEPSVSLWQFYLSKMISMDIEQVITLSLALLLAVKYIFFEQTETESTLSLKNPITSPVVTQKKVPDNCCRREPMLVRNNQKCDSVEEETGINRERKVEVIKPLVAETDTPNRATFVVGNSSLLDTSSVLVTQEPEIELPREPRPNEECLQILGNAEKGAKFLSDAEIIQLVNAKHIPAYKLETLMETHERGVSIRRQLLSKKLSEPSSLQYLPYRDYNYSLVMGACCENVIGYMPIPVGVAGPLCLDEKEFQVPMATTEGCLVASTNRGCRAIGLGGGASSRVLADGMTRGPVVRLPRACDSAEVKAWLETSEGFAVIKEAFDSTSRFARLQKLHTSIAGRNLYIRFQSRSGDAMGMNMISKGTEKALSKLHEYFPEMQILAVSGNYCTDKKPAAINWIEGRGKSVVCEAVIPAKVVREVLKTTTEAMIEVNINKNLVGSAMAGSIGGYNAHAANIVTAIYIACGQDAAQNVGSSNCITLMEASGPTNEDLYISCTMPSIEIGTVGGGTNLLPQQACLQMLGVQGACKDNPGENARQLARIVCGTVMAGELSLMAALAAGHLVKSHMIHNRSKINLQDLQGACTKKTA
Put plainly: The inhibitory activity against purified recombinant human HMG-CoA reductase was evaluated.

Each structure is given as a SMILES string. Where only a bound is given, the exact number is not on record here.

As usually defined, the IC50 is the concentration at which inhibition is half-maximal. A higher IC50 goes with weaker potency in that assay. As to `CC(C)(C)C(=O)OCOC(=O)CC(O)CP(=O)(CCc1c(Cl)cc(Cl)cc1OCc1ccccc1)OCOC(=O)C(C)(C)C` (stereo not given), in the assay on HepG2 [1], the IC50 turned out to be 0.1 µM.
One may read the Ki as a measure of affinity in units of concentration, obtained from inhibition or displacement. Take `O=C(O)C[C@H](O)CP(=O)(O)CCc1c(Cl)cc(Cl)cc1OCc1ccccc1`: the IC50 with HepG2 [2] was greater than 1 µM. Moreover, the Ki in assay [3] is 0.016 µM.
As to `O=C(O)C[C@H](O)C[C@H](O)CCc1c(Cl)cc(Cl)cc1OCc1ccccc1`, the Ki in assay [3] stood at 0.003 µM.
As for `COC(=O)CC(O)CP(=O)(O)CCc1c(Cl)cc(Cl)cc1OCc1ccccc1` (stereo not given), half-maximal inhibition in the assay with HepG2 [1] (IC50) required 0.1 µM.
